Laboratory results published in patent publication US20240245711A1, “A 19-NOR C3,3-DISUBSTITUTED C21-N-PYRAZOLYL STEROID FOR THE TREATMENT OF MAJOR DEPRESSIVE DISORDER” (Sage Therapeutics, Inc., priority 2021, published 2024).

System: post-menopausal women with MDD
Assay: Post hoc analysis of the Example 1 study: post-menopausal women with MDD
Format: in vivo, human
Source text: Hormonal changes during early menopause can often affect the metabolism of antidepressants (ADTs). Postmenopausal/older women may not respond well to ADTs. This example presents a post hoc analysis of the study described in Example 1 in post-menopausal women with MDD.
The study described in Example 1 enrolled patients with MDD, aged 18-75 years, with HAMD-17≥20 and a MADRS total score ≥28 to 1 of 2 cohorts: 30-mg Cohort and 50-mg Cohort. HAMD-17 responders (≥50% reduction from baseline) at Day 15 continued in study and were assessed for repeat-treatment eligibility. Post-menopausal women aged ≥45 were identified based on follicle stimulating hormone >40 at baseline (central lab data) and if medical history coded terms contained ‘menopause’.

[1] = Day 15, post-menopausal patients

Structure (SMILES): C[C@@]1(O)CC[C@H]2[C@H](CC[C@@H]3[C@@H]2CC[C@]2(C)[C@@H](C(=O)Cn4cc(C#N)cn4)CC[C@@H]32)C1 [Compound (1), 1-(2-((3R,5R,8R,9R,10S,13S,14S,17S)-3-hydroxy-3,13-dimethylhexadecahydro-1H-cyclopenta[a]phenanthren-17-yl)-2-oxoethyl)-1H-pyrazole-4-carbonitrile]
- Patients not requiring additional courses during their time in the study (106/152 post-menopausal patients who responded to and completed treatment cycle 1): 42.5%
- HAMD-17 remission rate [1]: 39.6%
- HAMD-17 response rate [1]: 75.7%
- Mean (SD) CFB in HAMD-17 [1]: −16.0 (7.00)
- TEAE diarrhea (post-menopausal patients): 7.9%
- TEAE dizziness (post-menopausal patients): 11.8%
- TEAE dry mouth (post-menopausal patients): 7.2%
- TEAE headache (post-menopausal patients): 13.2%
- TEAE insomnia (post-menopausal patients): 6.6%
- TEAE sedation (post-menopausal patients): 6.6%
- TEAE somnolence (post-menopausal patients): 12.5%
- TEAE upper respiratory infection (post-menopausal patients): 7.9%
- TEAEs leading to discontinuation of study drug (post-menopausal patients (8/152)): 5.3%
- TEAEs leading to withdrawal from the study (post-menopausal patients (9/152)): 5.9%
- TEAEs leading to dose reduction (post-menopausal patients (16/152)): 10.5%
- Share of patients with TEAEs that were mild or moderate (post-menopausal patients (90/102)): 88.2%
- Patients with at least 1 TEAE over the study duration (post-menopausal patients (102/152)): 67.1%
- Mean (range) number of total treatment courses (post-menopausal patients, cycle 1 responders): 2.2 (1-5)
- Tolerability (post-menopausal women): generally well-tolerated
